Patent US20160015064A1, “COMPOUNDS, COMPOSITIONS, AND METHODS FOR MODULATING SWEET TASTE” (CHROMOCELL CORPORATION, priority 2013, published 2016)

Columns and labels:
[1] = test system: perception of the sweet taste of an aqueous solution of sweetener; assay: Two-alternative forced choice sip and spit method (2AFC); format: in vivo, humans
Protocol: The effect of the test compounds on the perception of the sweet taste of an aqueous solution of sweetener in humans was evaluated using a two-alternative forced choice “sip and spit” method (2AFC).
(§1) The aqueous sweetener solutions were prepared by adding, fructose, sucrose or glucose (by weight), to water to achieve the desired concentration.
Compounds were first prepared as a 500-fold concentrated stock solution in 100% ethanol. These concentrated stocks were then added to the aqueous sweetener solutions to result in a final ethanol concentration of 0.2%. The control (positive and negative) samples were also normalized to 0.2% ethanol. This level of ethanol was not seen to contribute any perceived sweetness.
The 2AFC test used for compound evaluation was a blind and randomized test where taste panelists (n=15) evaluate a pair of sweetener solutions at a time—one sample contains aqueous sweetener solution plus compound (i.e. test) while the other contains aqueous sweetener solution at higher concentration without compound (i.e. positive control). Each test sample was compared against a positive control. For example, if the test sample contained 1× sweetener concentration with compound (e.g. 5% sucrose with compound), the positive control sample contained a 1.1× sweetener concentration (e.g. 5.5% sucrose without compound).
Panelists were instructed not to eat or drink (except water) for at least 1 h before the test. During the test, panelists were instructed to sip each sample, swirl it around their mouth and then expectorate. After tasting each sample in the pair, panelists were instructed to record the sample that is “sweeter” in taste. Panelists cleansed their palates by rinsing with water, eating a cracker and waiting for an interval of about 5 minutes. Each pair was tasted twice. All samples were tasted at ambient temperatures. Data were analyzed using binomial probabilities.
Approximate levels of sweetness enhancement in column 5 of Table 2 were calculated as follows:
Approximate levels of sweetness enhancement=Sweetener concentration of positive control surpassed by the test sample, divided by sweetener concentration for compound-containing sample (e.g. 1.15×=5.75% sucrose/5% sucrose).

[2] = test system: perception of the sweet taste in an aqueous environment; assay: Trained descriptive analysis (DA) panel, sweet attribute; format: in vivo, humans; settings: for Compound effects beyond the additive effect of inherent sweetness: 4% fructose and 8% sucrose
Protocol: The effect of the test compounds on the perception of the sweet taste in an aqueous environment, in the absence or presence of carbohydrate sweeteners, was evaluated using a descriptive analysis methodology with a group of trained panelists, as follows.
Candidate panelists were recruited, with prescreening and personal interviews, and were assessed for their ability to detect, recognize and differentiate basic taste attributes or mixtures thereof as part of a standardized acuity test. These candidate panelists were also assessed for their innate ability to identify flavors, and to rank on intensity scales. Other senses such as smell and vision were also included as part of the assessment. Candidates also were screened for their ability to use the language to describe and articulate ideas.
Selected candidates proceeded to training as a group in three phases: (1) Lexicon development, (2) Concept alignment, and (3) Scaling descriptors. During lexicon development, panelists evaluated products appropriate for use in the study to generate and align on terms describing the flavor, taste, aromatic, trigeminal, and temporal attributes. During concept alignment, the panel evaluated the products mentioned above to clarify and confirm the attributes that were generated during lexicon development using reference standards that appropriately define each attribute; these are either physical references (e.g. sucrose solutions) or verbal descriptions (e.g. overall flavor). Product terms and concepts were validated during this portion of the study.
In the last phase, scaling descriptors, the panel participated in a series of exercises focused on ordering and ranking samples according to relative attribute intensity, measuring attribute intensity using a defined length of line scale. Whenever possible, different levels or concentration of references were used as anchors to facilitate use of the scale. Panelists were provided with blinded references at this stage to evaluate their understanding and perception of the scale.
The panel used in this example was trained to reference sweet attributes in an absolute manner, such that a particular concentration of sweetener is always measured by the panelists at the same point using a 15 cm line scale where each cm represents a 1% increase in sucrose to cover the range of 0% to 15% sucrose. For the rest of the attributes, the panel was trained using a hybrid approach between descriptive analysis methods (e.g. quantitative descriptive analysis, the sensory spectrum, etc.) well-known to those skilled in the art.
The trained panel was then used for a descriptive analysis assessment for Compounds 1, 2 and 3 in aqueous solutions at pH 3 and pH 7. Each of the three compounds was tested at 35 ppm in sucrose and fructose sweeteners. In addition, Compounds 1, 2 and 3 were also examined in water at pH 3 and pH 7 to assess for any inherent sweetness.
The aqueous sweetener solutions were prepared by adding, fructose or sucrose (by weight), to water to achieve the desired concentration. Aqueous sucrose solutions at pH 3 were buffered using a final concentration of 0.096% Citric Acid plus 0.036% Sodium Citrate while aqueous fructose solutions at pH 3 were buffered using a final concentration of 0.06% Citric Acid and 0.0225% Sodium Citrate.
Compounds were first prepared as a […] concentrated stock solution in 100% ethanol. These concentrated stocks were then added to the aqueous sweetener solutions to result in a final ethanol concentration of 0.2%. In addition to compounds, a solubilizing agent at a final concentration of 0.02% was added to the aqueous sweetener solutions. Control samples were also balanced with 0.2% ethanol and in certain cases 0.02% solubilizing agent.
Both control (aqueous sweetener solutions without compound) and variant (aqueous sweetener solutions with compound) samples were blinded and randomized (by sweetener and pH blocks). […]

flavor = settings: DuBois, et al., J. Med. Chem., 1981; cited from earlier work
[3] = test system: perception of the sweet taste of an aqueous solution of sweetener; assay: Ranking sip and spit test of sweetness perception (R index); format: in vivo, humans; settings: compound 10 ppm, vs negative control
Protocol: The effect of the test compounds on the perception of the sweet taste of an aqueous solution of sweetener in humans was evaluated using a ranking “sip and spit” method.
as §1
Compounds were first prepared as a 500-fold concentrated stock solution in 100% ethanol. These concentrated stocks were then added to the aqueous sweetener solutions to result in a final ethanol concentration of 0.2%. The control (positive and negative) samples were also normalized to 0.2% ethanol.
In the ranking test used for compound evaluation, taste panelists (n=15), rank samples in increasing order of sweetness. One set, comprising of 6 samples, was presented to each panelists at a given time and are asked to rank them in order of increasing sweetness.
Panelists were instructed not to eat or drink (except water) for at least 1 h before the test. During the test, panelists were instructed to sip each sample, swirl it around their mouth and then expectorate. After tasting each set, panelists were instructed to rank the 6 samples within the set from least sweet to most sweet. Where rank 1—is lowest in sweetness and rank 6—is highest in sweetness. Panelists cleansed their palates by rinsing with water, eating a cracker and waiting for an interval of 10 minutes. All samples were tasted at ambient temperatures. Each sample was tasted twice.
R index analysis was utilized to determine the degree of difference between a test and control sample. It indicates the level of discrimination between two samples. […] A positive control sample was used to assess the ability of the panelists to accurately discriminate sweetness perception differences from the negative control.

[4] = 4% fructose, pH 3, 35 ppm compound plus solubilizing agent
[5] = 4% fructose, pH 7, 35 ppm compound plus solubilizing agent
[6] = 8% sucrose, pH 3, 35 ppm compound plus solubilizing agent
[7] = 8% sucrose, pH 7, 35 ppm compound plus solubilizing agent

COc1ccc(C2CC(=O)c3c(O)cccc3O2)cc1O (racemic) [Compound 1, 5-hydroxy-2-(3-hydroxy-4-methoxyphenyl)chroman-4-one]
Fold increase in perceived sweetness ([1]; test sample 4% fructose, compound 25 ppm with positive 2AFC): >1.20X | Fold increase in perceived sweetness ([1]; test sample 5% sucrose, compound 15 ppm with positive 2AFC, positive control surpassed / test sweetener concentration): >1.15X | Fold increase in perceived sweetness ([1]; test sample 6.5% glucose, compound 10, 25 ppm with positive 2AFC): >1.15X | DA Panel Average Sweetness Intensity Score (on 15 cm scale) [2, 4]: 6.94 | Fold enhancement of sweetness perception as compared to control sweetener solution [2, 4]: 1.38X | DA Panel Average Sweetness Intensity Score (on 15 cm scale) [2, 5]: 7.80 | Fold enhancement of sweetness perception as compared to control sweetener solution [2, 5]: 1.78X | DA Panel Average Sweetness Intensity Score (on 15 cm scale) [2, 6]: 9.31 | Fold enhancement of sweetness perception as compared to control sweetener solution [2, 6]: 1.29X | DA Panel Average Sweetness Intensity Score (on 15 cm scale) [2, 7]: 9.97 | Fold enhancement of sweetness perception as compared to control sweetener solution [2, 7]: 1.33X | DA Panel Average Sweetness Intensity Score (on 15 cm scale) ([2]; citric acid-citrate solution pH 3, no sweetener, 35 ppm compound plus solubilizing agent): 1.14 | Perceived inherent sweetness compared to solubilizing agent alone ([2]; citric acid-citrate solution pH 3, 35 ppm compound plus solubilizing agent): do not show further significant increase in perceived inherent sweetness | Compound effects beyond the additive effect of inherent sweetness ([2]; pH 3, 35 ppm): super-additive effects | Perceived sweetness vs control sweetener solutions (FIG. 2) ([2]; pH 3, fructose and sucrose, 35 ppm, ** p<0.01): significant increase in perceived sweetness | Compound effects beyond the additive effect of inherent sweetness ([2]; pH 7, 35 ppm): super-additive effects | Perceived sweetness vs control sweetener solutions (FIG. 1) ([2]; pH 7, fructose and sucrose, 35 ppm, ** p<0.01): significant increase in perceived sweetness | DA Panel Average Sweetness Intensity Score (on 15 cm scale) ([2]; water pH 7, no sweetener, 35 ppm compound plus solubilizing agent, 1 cm = 1% sucrose): 1.57 | Perceived sweetness compared to solubilizing agent alone (inherent sweetness) ([2]; water pH 7, 35 ppm compound plus solubilizing agent): further increase in perceived sweetness | Reported flavor (bitter) (flavor): bitter flavor in a significant portion of tasters | Reported flavor (sweet) (flavor): sweet flavor | R Index Score ([3]; 4% fructose test sample): 90 | R Index Score ([3]; 5% sucrose test sample, significant at R index ≧60): 93
